The experiment has as its target T1, Plk1 (Homo sapiens, UniProt P53350).
T1 construct: in the presence of 15 nM Plk1 (A20-K338)
The experiment is described as follows: Plk1 inhibition assay (radioactive-phosphate incorporation). The format is biochemical. The note with it: Ki(app). The procedure:
The compounds of the present invention are evaluated as inhibitors of human PLK kinase using the following assays.
Compounds were screened for their ability to inhibit Plk1 using a radioactive-phosphate incorporation assay. Assays were carried out in a mixture of 25 mM HEPES (pH 7.5), 10 mM MgCl2, and 1 mM DTT. Final substrate concentrations were 50 μM [γ-33P]ATP (136 mCi 33P ATP/mmol ATP, Amersham Pharmacia Biotech/Sigma Chemicals) and 10 μM peptide (SAM68 protein Δ332-443). Assays were carried out at 25° C. in the presence of 15 nM Plk1 (A20-K338). An assay stock buffer solution was prepared containing all of the reagents listed above, with the exception of ATP and the test compound of interest. 30 μL of the stock solution was placed in a 96 well plate followed by addition of 2 μL of DMSO stock containing serial dilutions of the test compound (typically starting from a final concentration of 10 μM with 2-fold serial dilutions) in duplicate (final DMSO concentration 5%). The plate was pre-incubated for 10 minutes at 25° C. and the reaction initiated by addition of 8 μL [γ-33P]ATP (final concentration 50 μM). […]
After removing mean background values for all of the data points, Ki(app) data were calculated from non-linear regression analysis of the initial rate data using the Prism software package (GraphPad Prism version 3.0cx for Macintosh, GraphPad Software, San Diego Calif., USA). […]

T1 sequence (P53350 20-338): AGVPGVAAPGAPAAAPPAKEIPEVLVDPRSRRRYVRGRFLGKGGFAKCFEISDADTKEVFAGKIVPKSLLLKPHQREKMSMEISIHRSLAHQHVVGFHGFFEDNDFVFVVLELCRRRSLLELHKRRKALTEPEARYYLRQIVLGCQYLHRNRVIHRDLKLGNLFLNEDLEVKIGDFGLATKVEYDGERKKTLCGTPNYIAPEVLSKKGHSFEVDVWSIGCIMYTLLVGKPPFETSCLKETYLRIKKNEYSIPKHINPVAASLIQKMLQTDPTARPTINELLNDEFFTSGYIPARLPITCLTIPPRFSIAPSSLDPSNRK

As to `CC(Oc1cc(-c2cc(N)n[nH]2)sc1C(N)=O)c1ccccc1Cl` (centres unmarked) [I-2, 5-(5-Amino-2H-pyrazol-3-yl)-3-[1-(2-chloro-phenyl)-ethoxy]-thiophene-2-carboxylic acid amide], under “lower bound in nM, upper bound in μM, protocol not specified”, the Ki lay within 100 to 4000 nM.
`CC(Oc1cc(-n2ccnc2)sc1C(N)=O)c1ccccc1Cl` (centres unmarked) [I-1, 3-[1-(2-Chloro-phenyl)-ethoxy]-5-imidazol-1-yl-thiophene-2-carboxylic acid amide]: where the note is “the text does not say which of the two Plk1 protocols was used”, the Ki is 10 to 100 nM.

(Values after patent US8188134B2, “Thiophene-carboxamides useful as inhibitors of protein kinases” (Vertex Pharmaceuticals Incorporated, priority 2006, dated 2012).)
